The record followed here is patent publication US9663478B2, “Benzotriazine oxides as drugs targeting Mycobacterium tuberculosis” (priority 2011, dated 2017).

Data set [1] relates to Mtb H37Rv. Briefly: TB MIC - SRI, resazurin-based microplate assay. Conditions: Mycobacterium tuberculosis, H37RV. It counts as cell-based, Mycobacterium tuberculosis. In general terms: Alamar Blue is a resazurin reagent that responds to reducing activity.
Data set [2] relates to Mtb H37Rv. Briefly: TB MIC - ITR (UIC), Institute for Tuberculosis Research. It counts as cell-based, Mycobacterium tuberculosis. Conditions: for MIC: Mycobacterium tuberculosis, H37RV, Tables 1-4, read-out: TB MIC - ITR; for TB MIC - UIC: Tables P1, P2.
A further data set concerns NRP Mtb H37Rv cells. Briefly: Low-oxygen recovery assay (LORA) MIC. In kind it is cell-based, Mycobacterium tuberculosis. To be noted: for MIC: Mycobacterium tuberculosis, H37RV, read-out: LORA MIC - ITR; for LORA MIC: Tables P1, P2, non-replicating M. tuberculosis.
The test system of a further data set is Vero cells. Conditions: African green monkey, 72 h.
The mark [3] stands for this setting: Tables 1-4 and text, read-out: TB MIC - SRI.
The mark [4] stands for this setting: Tables P1-P3, read-out: TB MIC - SRI.

Values after ≈ are worked out from the molar mass of the structure shown. Like-named read-outs stand apart in the source and are kept apart here.

For `CCNc1n[n+]([O-])c2cc(Br)ccc2[n+]1[O-]` [Compound 15ca, 7-bromo-3-(ethylamino)benzo[e][1,2,4]triazine 1,4-dioxide], the MIC in the data set with Mtb H37Rv [1] (setting [3]) amounted to 0.62 mg/L (≈ 2.17 µM); in the data set on Mtb H37Rv [2], 0.49 mg/L (≈ 1.72 µM); with NRP Mtb H37Rv cells (NRP Mtb, Tables 1-4 and text), 0.46 mg/L (≈ 1.61 µM). Moreover, the “Vero Tox CC50” value in the data set with Vero cells was determined as 4.2 mg/L.
For `CCN(CC)c1n[n+]([O-])c2ccccc2[n+]1[O-]` [Compound 17o, 3-(diethylamino)benzo[e][1,2,4]triazine 1,4-dioxide], the MIC was found to be 0.31 mg/L (≈ 1.32 µM) with Mtb H37Rv [1] (setting [3]); 0.46 mg/L (≈ 1.96 µM) with Mtb H37Rv [2]; 1.3 mg/L (≈ 5.55 µM) with NRP Mtb H37Rv cells (NRP Mtb, Tables 1-4 and text). In addition, the “Vero Tox CC50” value in the data set with Vero cells came out at 12 mg/L.
For the molecule `[O-][n+]1nc(NC2CC2)[n+]([O-])c2ccc(Cl)cc21` [SRI-012301], the MIC in the data set with Mtb H37Rv [1] (setting [4]) turned out to be 0.625 mg/L (≈ 2.47 µM). This molecule also returned a TB MIC - UIC with Mtb H37Rv [2] of 0.21 mg/L. In the data set on NRP Mtb H37Rv cells, this molecule displayed an LORA MIC of 0.22 mg/L. The “VERO Tox-SRI” value in the data set on Vero cells was 1.36.
As for `CCNc1n[n+]([O-])c2cc(Cl)ccc2[n+]1[O-]` [SRI-012306], the MIC with Mtb H37Rv [1] (setting [4]) is 1.25 mg/L (≈ 5.19 µM). Further, the TB MIC - UIC in the data set on Mtb H37Rv [2] is less than 0.125 mg/L. The same molecule yielded an LORA MIC in the data set on NRP Mtb H37Rv cells of 0.41 mg/L. The “VERO Tox-SRI” value in the data set with Vero cells is 2.65.
In the case of `[O-][n+]1nc(NC2CCCCC2)[n+]([O-])c2ccc(Cl)cc21` [Compound 15bf, 7-chloro-3-(cyclohexylamino)benzo[e][1,2,4]triazine 1,4-dioxide], the MIC came to 0.62 mg/L (≈ 2.1 µM) in the data set with Mtb H37Rv [1] (setting [3]); 0.94 mg/L (≈ 3.19 µM) in the data set on Mtb H37Rv [2]; 0.63 mg/L (≈ 2.14 µM) in the data set on NRP Mtb H37Rv cells (NRP Mtb, Tables 1-4 and text). In addition, the “Vero Tox CC50” value in the data set with Vero cells amounted to 2.6 mg/L.
Take `CC(C)CC(C)Nc1n[n+]([O-])c2cc(F)ccc2[n+]1[O-]` (centres unmarked) [SRI-012281]: the MIC in the data set with Mtb H37Rv [1] (setting [4]) stood at 1.25 mg/L (≈ 4.46 µM). This molecule also gave a TB MIC - UIC in the data set on Mtb H37Rv [2] of 0.55 mg/L. Further, the LORA MIC in the data set with NRP Mtb H37Rv cells was determined as 0.4 mg/L. Besides, the “VERO Tox-SRI” value in the data set on Vero cells is less than 2.5.
Consider `CN(C)c1n[n+]([O-])c2cc3c(cc2[n+]1[O-])CCC3` [Compound 20s, 3-(dimethylamino)-7,8-dihydro-6H-indeno[5,6-e][1,2,4]triazine 1,4-dioxide], for which the MIC in the data set on Mtb H37Rv [1] (Table 5, read-out: MIC, H37Rv) came to 0.62 mg/L (≈ 2.52 µM); in the data set on Mtb H37Rv [2], 0.3 mg/L (≈ 1.22 µM); with NRP Mtb H37Rv cells it was 1.5 mg/L (≈ 6.09 µM). Moreover, the “Vero Tox CC50” value with Vero cells worked out at 24 mg/L.
For `COCCNC(=O)c1ccc2c(c1)[n+]([O-])c(C(C)=O)c(C)[n+]2[O-]` [Cmpd 5], the MIC in the data set on Mtb H37Rv [1] (setting [3]) is 10 mg/L (≈ 31.3 µM); in the data set with Mtb H37Rv [2], 27 mg/L (≈ 84.6 µM); in the data set with NRP Mtb H37Rv cells (NRP Mtb, Tables 1-4 and text) it was more than 32 mg/L. The “Vero Tox CC50” value in the data set with Vero cells is more than 16 mg/L.
For `[O-][n+]1nc(N[C@@H]2C[C@H]3CC[C@@H]2C3)[n+]([O-])c2ccc(Br)cc21` [Compound 15cm, 3-((1R,2R,4S)-bicyclo[2.2.1]heptan-2-ylamino)-7-bromobenzo[e][1,2,4]triazine 1,4-dioxide], the MIC was 0.31 mg/L (≈ 0.883 µM) in the data set on Mtb H37Rv [1] (setting [3]); 0.36 mg/L (≈ 1.03 µM) in the data set with Mtb H37Rv [2]; 0.41 mg/L (≈ 1.17 µM) with NRP Mtb H37Rv cells (NRP Mtb, Tables 1-4 and text). In addition, the “Vero Tox CC50” value in the data set with Vero cells amounted to 0.80 mg/L.
Consider `Cc1c(N2CCCC2)[n+]([O-])c2ccccc2[n+]1[O-]` [Cmpd 6], for which the MIC with Mtb H37Rv [1] (setting [3]) was more than 10 mg/L; in the data set on NRP Mtb H37Rv cells (NRP Mtb, Tables 1-4 and text) it was more than 32 mg/L. Besides, in the data set on Vero cells, the “Vero Tox CC50” value is more than 16 mg/L.
With `C[C@@H](Nc1n[n+]([O-])c2ccccc2[n+]1[O-])C1CCCCC1` [Compound 8k, (R)-3-((1-cyclohexylethyl)amino)benzo[e][1,2,4]triazine 1,4-dioxide], the MIC came out at 1.2 mg/L (≈ 4.16 µM) in the data set with Mtb H37Rv [1] (setting [3]); 0.92 mg/L (≈ 3.19 µM) with Mtb H37Rv [2]; 0.36 mg/L (≈ 1.25 µM) with NRP Mtb H37Rv cells (NRP Mtb, Tables 1-4 and text). Further, the “Vero Tox CC50” value in the data set with Vero cells was 8.9 mg/L.
With `CCNc1n[n+]([O-])c2cc3c(cc2[n+]1[O-])CCC3` [SRI-012286], the MIC in the data set with Mtb H37Rv [1] (read-out: Activity against H37Rv, Table P4) came out at 1.25 mg/L (≈ 5.08 µM); with Mtb H37Rv [1] (read-out: TB MIC - SRI, Tables P1-P3) it was 1.25 mg/L (≈ 5.08 µM). In the data set with Mtb H37Rv [2], the TB MIC - UIC is 0.95 mg/L. The molecule also displayed an LORA MIC in the data set on NRP Mtb H37Rv cells of 0.83 mg/L. In the data set with Vero cells, the “VERO Tox-SRI” value amounted to 36.0.
For the molecule `[O-][n+]1nc(N[C@@H]2C[C@H]3CC[C@@H]2C3)[n+]([O-])c2ccc(F)cc21` [Compound 15am, 3-((1R,2R,4S)-bicyclo[2.2.1]heptan-2-ylamino)-7-fluorobenzo[e][1,2,4]triazine 1,4-dioxide], the MIC was 0.31 mg/L (≈ 1.07 µM) in the data set on Mtb H37Rv [1] (setting [3]); less than 0.12 mg/L in the data set with Mtb H37Rv [2]; 0.21 mg/L (≈ 0.723 µM) with NRP Mtb H37Rv cells (NRP Mtb, Tables 1-4 and text). Further, the “Vero Tox CC50” value in the data set on Vero cells was less than 2.5 mg/L.
With `CCNc1n[n+]([O-])c2cc(C)c(OC)cc2[n+]1[O-]` [Compound 15ga, 3-(ethylamino)-6-methoxy-7-methylbenzo[e][1,2,4]triazine 1,4-dioxide], the MIC in the data set with Mtb H37Rv [1] (Table 5, read-out: MIC, H37Rv) was determined as 1.2 mg/L (≈ 4.8 µM); in the data set on Mtb H37Rv [1] (setting [3]), 2.5 mg/L (≈ 9.99 µM); with Mtb H37Rv [2] it was 3.5 mg/L (≈ 14 µM). In addition, the “Vero Tox CC50” value in the data set on Vero cells was more than 100 mg/L.
As to `[O-][n+]1nc(N2CCCCC2)[n+]([O-])c2cc3c(cc21)CCC3` [Compound 20r, 3-(piperidin-1-yl)-7,8-dihydro-6H-indeno[5,6-e][1,2,4]triazine 1,4-dioxide], the MIC in the data set on Mtb H37Rv [1] (Table 5, read-out: MIC, H37Rv) is 0.62 mg/L (≈ 2.17 µM); in the data set on Mtb H37Rv [2], 0.4 mg/L (≈ 1.4 µM); in the data set with NRP Mtb H37Rv cells, 0.49 mg/L (≈ 1.71 µM). Further, the “Vero Tox CC50” value in the data set with Vero cells is 21 mg/L.
Regarding `[O-][n+]1nc(N[C@@H]2C[C@H]3CC[C@@H]2C3)[n+]([O-])c2cc3c(cc21)CCC3` (racemic) [SRI-012404], the MIC in the data set with Mtb H37Rv [1] (setting [4]) was 1.25 mg/L (≈ 4 µM). The “VERO Tox-SRI” value in the data set on Vero cells turned out to be 50.
